Measurements published in ChEMBL document CHEMBL1158694, “Terphenylquinone inhibitors of the src protein tyrosine kinase from Stilbella sp” (J Nat Prod, 2005).

The compounds below were run against Proto-oncogene tyrosine-protein kinase Src (Homo sapiens, UniProt P12931) (assay: Inhibition of His-tagged human src kinase expressed in Sf9 cells by DELFIA assay).
Proto-oncogene tyrosine-protein kinase Src, sequence (P12931 2-536 limits assumed): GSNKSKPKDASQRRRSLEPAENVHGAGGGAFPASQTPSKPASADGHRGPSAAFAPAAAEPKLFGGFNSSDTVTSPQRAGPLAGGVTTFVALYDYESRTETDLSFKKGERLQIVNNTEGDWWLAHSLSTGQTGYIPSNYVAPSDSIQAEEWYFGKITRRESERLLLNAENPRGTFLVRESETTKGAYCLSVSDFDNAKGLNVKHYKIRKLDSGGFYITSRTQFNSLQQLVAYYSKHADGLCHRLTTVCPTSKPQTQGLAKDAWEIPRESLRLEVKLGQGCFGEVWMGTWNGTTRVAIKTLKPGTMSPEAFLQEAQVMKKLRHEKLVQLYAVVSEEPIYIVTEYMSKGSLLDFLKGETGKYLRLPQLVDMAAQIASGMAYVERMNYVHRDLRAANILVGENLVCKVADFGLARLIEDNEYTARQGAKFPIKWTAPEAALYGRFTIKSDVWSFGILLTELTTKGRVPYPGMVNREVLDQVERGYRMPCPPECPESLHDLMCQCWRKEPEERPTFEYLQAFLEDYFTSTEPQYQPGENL

IC50 [µM] | Compound
14.5 | O=C1C(O)=C(c2ccc(O)c(O)c2)C(=O)C(O)=C1c1ccccc1
37.5 | O=C1C(O)=C(c2ccc(O)cc2)C(=O)C(O)=C1c1ccccc1
23.6 | O=C1C(c2ccccc2)=C(O)C(=O)c2c1oc1cc(O)c(O)cc21
3.9 | O=C1C(O)=C(c2cc(O)c(O)c(O)c2)C(=O)C(O)=C1c1ccccc1

Compound | IC50 [µM]
O=C1C(O)=C(c2ccccc2)C(=O)C(O)=C1c1ccccc1 | > 50
